Test: Metabolic excretion study (urine and feces collection in metabolic cages) of 177Lu-labelled human IgG conjugates
Type: in vivo, mice (normal CD-1 or athymic CD-1 nude)
Conditions: mice, intravenous, 7 day period; tested as [177Lu]-HuMIgG conjugates
Protocol: Groups of 4 or 5 mice (normal CD-1 or athymic CD-1 nude) were injected intravenously with approximately 15 microcuries of radiolabelled test compound. Test compounds with various linkers were synthesized and radiolabelled with lutetium-177. For pharmacokinetic studies, animals were sacrificed at specific time points, and blood and tumor (when applicable) were analyzed for total radioactivity. For metabolism studies, animals were placed in metabolic cages (4-5 per cage) for urine and feces collection every 24 hours for up to 7 days. The radioactive content of urine and feces samples was quantified and converted to total urine or feces output based on weight. Excretion profiles for urine, feces, or total excretion (urine+feces) were generated by plotting cumulative % injected dose (%ID) over time.
The human IgG preparation used consisted of a purified mixture of all IgG isotypes (IgG1-4).

Structure (SMILES)	total excretion of radioactivity compared to Compound A-HuMIgG
O=C(O)CN1CCN(CC(=O)O)CCN(C(CCC(=O)NCCCCCCCCCCC(=O)Oc2c(F)c(F)cc(F)c2F)C(=O)O)CCN(CC(=O)O)CC1 (centres unmarked) [Compound B, 4-{[11-oxo-11-(2,3,5,6-tetrafluorophenoxy)undecyl]carbamoyl}-2-[4,7,10-tris(carboxymethyl)-1,4,7,10-tetraazacyclododecan-1-yl]butanoic acid]	increased the amount total excretion of radioactivity
O=C(O)CN1CCN(CC(=O)O)CCN(C(CCC(=O)NCCOCCOCCOCCC(=O)Oc2c(F)c(F)cc(F)c2F)C(=O)O)CCN(CC(=O)O)CC1 (centres unmarked) [Compound C, 4-{[2-(2-{2-[3-oxo-3-(2,3,5,6-tetrafluorophenoxy)propoxy]ethoxy}ethoxy)ethyl]carbamoyl}-2-[4,7,10-tris(carboxymethyl)-1,4,7,10-tetraazacyclododecan-1-yl]butanoic acid]	increased the amount total excretion of radioactivity

— patent US11191854B2, “Pharmacokinetic enhancements of bifunctional chelates and uses thereof” (Centre for Probe Development and Commercialization, priority 2017, dated 2021)
